What was measured:
Salmonellae [1] = test: Salmonellae log reduction in pot pie filling by 4-HBITC only (frozen filling thawed to room temperature, plate count); format: cell-based
Source text: (§1) Pot pie fillings made up of both Salmonellae inoculated particulates and gravy carrying the 4-hydroxybenzyl isothiocyanate (4-HBITC) in white mustard essential oil (WMEO), is used to evaluate the effect of 4-HBITC in a heterogeneous food system. Standing overnight cultures of five strains of Salmonellae are used to inoculate, at two different levels, mixtures of frozen vegetable and chicken particulates containing about 62% chicken, 17% carrot, 15% potato and 2% peas, as described in Example 2, all by weight of the total particulate mixture. The high level contains about 6 log colony forming units (cfu)/gm while the medium level contains about 3 log cfu/gm of Salmonellae. Bags containing the inoculated cultures and the particulates are gently inverted and rolled to ensure uniform coating of the particulates and the inoculated particles are then stored at −28° C. for 24 hours before being mixed with sauce containing white mustard essential oil (WMEO).
(§2) Sauce as made in Example 2 is used as the vehicle for WMEO. From a 2.4% 4-HBITC in WMEO stock solution in peanut oil made as described in Example 1, accurate amounts are weighed out such that 400 g of the pie filling comprising 36% of the particulates and 64% of the gravy will have 750, 562.5 or 250 ppm, 4-HBITC when mixed together. The particulates and the sauce are first put together in a sterile bowl and the WMEO in peanut oil added to the mixture and mixed gently for about 1 minute. The control (0 ppm 4-HBITC samples have only the vegetable oil added to them before mixing. The completed pie fillings are then immediately frozen at −28° C. for 48 hours before the second stage of the experiment.
(§3) To enumerate the accurate Salmonellae count prior to freezing, a sample is removed from each of the mixed pie fillings, including the control, and diluted at a ratio of 1:10 with Butterfields buffer and homogenized using a stomacher. The homogenized and diluted sample is suitably diluted further to obtain the appropriate number of bacterial colonies per plate and plated in triplicate on trypticase soy agar with yeast extract and allowed to stabilize for 30-60 minutes. The plates are then over-laid with xyline-lysine-deoxycholate (XLD) agar to resuscitate and recover injured cells and incubated at 35° C. for 48 hours before counting the colonies.
(§4) In the second stage of the experiment, the frozen pie fillings are cooked in 700 W or 1100 W microwave ovens. During cooking, samples are removed from the pie fillings at 15, 45, 60, 90 120, 180 and 240 seconds. At each of these time points, the surviving microbial counts are enumerated by removing discrete 25 g samples and plating them in the manner described above. To determine the effect of 4-HBITC only, each of the treatments and the control is thawed to room temperature and triplicate samples are used to enumerate the surviving microorganisms as detailed above.
(§5) The microbial reductions resulting from the treatments is attributed to the simultaneous action of microwave heating and 4-HBITC while microbial reductions occurring in the 0 ppm 4-HBITC containing control sample is attributed to microwave heating only. If the reduction in microbial counts due to the simultaneous action of 4-HBITC and microwave heating is greater than the sum of the individual reductions in microbial counts due to 4-HBITC and microwave heating, a synergistic effect is considered to be present (YES). If the reduction in microbial counts due to the simultaneous action of 4-HBITC and microwave heating is equal to or less than the sum of the individual reductions in microbial counts due to 4-HBITC and due to microwave heating, a synergistic effect is considered to be absent (NO).

Salmonellae [2] = test: Salmonellae log reduction in frozen pot pie filling containing 4-HBITC cooked in a microwave oven (plate count); format: cell-based; parameters: key to Synergistic effect Yes/No: Yes: reduction in microbial counts due to the simultaneous action of 4-HBITC and microwave heating is greater than the sum of the individual reductions in microbial counts due to 4-HBITC and microwave heating, a synergistic effect is considered to be present (YES); No: reduction in microbial counts due to the simultaneous action of 4-HBITC and microwave heating is equal to or less than the sum of the individual reductions in microbial counts due to 4-HBITC and due to microwave heating, a synergistic effect is considered to be absent (NO); conditions: for Synergistic effect Yes/No: 180 sec
Source text: as §1, §2, §3, §4, §5

[3] = 250 ppm 4-HBITC, inoc. level H, MW power 700 Watts
[4] = 250 ppm 4-HBITC, inoc. level H, MW power 1100 Watts
[5] = 250 ppm 4-HBITC, inoc. level M, MW power 700 Watts
[6] = 250 ppm 4-HBITC, inoc. level M, MW power 1100 Watts
[7] = 562.5 ppm 4-HBITC, inoc. level H, MW power 700 Watts
[8] = 562.5 ppm 4-HBITC, inoc. level H, MW power 1100 Watts
[9] = 562.5 ppm 4-HBITC, inoc. level M, MW power 700 Watts
[10] = 562.5 ppm 4-HBITC, inoc. level M, MW power 1100 Watts
[11] = 750 ppm 4-HBITC, inoc. level H, MW power 700 Watts
[12] = 750 ppm 4-HBITC, inoc. level H, MW power 1100 Watts
[13] = 750 ppm 4-HBITC, inoc. level M, MW power 700 Watts
[14] = 750 ppm 4-HBITC, inoc. level M, MW power 1100 Watts

Compound: Oc1ccc(CN=C=S)cc1 [4-HBITC, 4-hydroxybenzyl isothiocyanate]
- log reductions (180 sec) due to 4-HBITC only (Salmonellae [1]; [3]): 0.74 log
- log reductions (180 sec) due to 4-HBITC only (Salmonellae [1]; [4]): 1.05 log
- log reductions (180 sec) due to 4-HBITC only (Salmonellae [1]; [5]): 1.15 log
- log reductions (180 sec) due to 4-HBITC only (Salmonellae [1]; [6]): 1.1 log
- log reductions (180 sec) due to 4-HBITC only (Salmonellae [1]; [7]): 1.59 log
- log reductions (180 sec) due to 4-HBITC only (Salmonellae [1]; [8]): 1.59 log
- log reductions (180 sec) due to 4-HBITC only (Salmonellae [1]; [9]): 2.4 log
- log reductions (180 sec) due to 4-HBITC only (Salmonellae [1]; [10]): 2.4 log
- log reductions (180 sec) due to 4-HBITC only (Salmonellae [1]; [11]): 2.03 log
- log reductions (180 sec) due to 4-HBITC only (Salmonellae [1]; [12]): 2.14 log
- log reductions (180 sec) due to 4-HBITC only (Salmonellae [1]; [13]): 2.4 log
- log reductions (180 sec) due to 4-HBITC only (Salmonellae [1]; [14]): 2.64 log
- log reductions (180 sec) due to Simultaneous action of 4-HBITC & heat (Salmonellae [2]; [3]): 1.11 log
- Synergistic effect Yes/No (Salmonellae [2]; [3]): No
- log reductions (180 sec) due to Simultaneous action of 4-HBITC & heat (Salmonellae [2]; [4]): 1.63 log
- Synergistic effect Yes/No (Salmonellae [2]; [4]): Yes
- log reductions (180 sec) due to Simultaneous action of 4-HBITC & heat (Salmonellae [2]; [5]): 1.42 log
- Synergistic effect Yes/No (Salmonellae [2]; [5]): No
- log reductions (180 sec) due to Simultaneous action of 4-HBITC & heat (Salmonellae [2]; [6]): 1.38 log
- Synergistic effect Yes/No (Salmonellae [2]; [6]): No
- log reductions (180 sec) due to Simultaneous action of 4-HBITC & heat (Salmonellae [2]; [7]): 2.97 log
- Synergistic effect Yes/No (Salmonellae [2]; [7]): Yes
- log reductions (180 sec) due to Simultaneous action of 4-HBITC & heat (Salmonellae [2]; [8]): 5.25 log
- Synergistic effect Yes/No (Salmonellae [2]; [8]): Yes
- log reductions (180 sec) due to Simultaneous action of 4-HBITC & heat (Salmonellae [2]; [9]): 4.38 log
- Synergistic effect Yes/No (Salmonellae [2]; [9]): Yes
- log reductions (180 sec) due to Simultaneous action of 4-HBITC & heat (Salmonellae [2]; [10]): 4.38 log
- Synergistic effect Yes/No (Salmonellae [2]; [10]): Yes
- log reductions (180 sec) due to Simultaneous action of 4-HBITC & heat (Salmonellae [2]; [11]): 5.25 log
- Synergistic effect Yes/No (Salmonellae [2]; [11]): Yes
- log reductions (180 sec) due to Simultaneous action of 4-HBITC & heat (Salmonellae [2]; [12]): 1.56 log
- Synergistic effect Yes/No (Salmonellae [2]; [12]): No
- log reductions (180 sec) due to Simultaneous action of 4-HBITC & heat (Salmonellae [2]; [13]): 4.38 log
- Synergistic effect Yes/No (Salmonellae [2]; [13]): Yes
- log reductions (180 sec) due to Simultaneous action of 4-HBITC & heat (Salmonellae [2]; [14]): 4.38 log
- Synergistic effect Yes/No (Salmonellae [2]; [14]): Yes
